Reference: ChEMBL document CHEMBL3600303, “The N-Terminal T-T Motif of a Third-Generation HIV-1 Fusion Inhibitor Is Not Required for Binding Affinity and Antiviral Activity” (J Med Chem, 2015)
pIC50: −log10 of the molar value. Active and inactive are the calls of the source. No cut-off for these calls is given here.

Experiments:
[1] = test system: Human immunodeficiency virus 1; test: Antiviral activity against HIV1 NL4-3 pseudovirus infected in human TZM-bl cells assessed as inhibition of viral entry into cells after 48 hrs by single-cycle infection assay; type: functional, organism-based; conditions: Human immunodeficiency virus 1, NL4-3, TZM-bl
[2] = test system: Human immunodeficiency virus 1; test: Antiviral activity against wild type HIV1 NL4-3 infected in human TZM-bl cells assessed as inhibition of viral replication after 2 days by luciferase reporter gene assay; type: functional, organism-based; conditions: Human immunodeficiency virus 1, NL4-3, TZM-bl, 48 h
[3] = target: Envelope glycoprotein gp160 (Human immunodeficiency virus type 1 group M subtype B (isolate HXB2)(HIV-1)) (UniProt P04578); test: Binding affinity to HIV-1 HXB2 gp41 N-terminal heptad repeat assessed as thermostability of compound at 10 uM after 30 mins by CD spectroscopic analysis; conditions: Human immunodeficiency virus 1
[4] = Thermostability of the compound in PBS assessed as melting temperature at 20 uM by CD spectroscopic analysis; type: physicochemical; conditions: buffer
[5] = target: Envelope glycoprotein gp160 (Human immunodeficiency virus type 1 group M subtype B (isolate HXB2)(HIV-1)) (UniProt P04578); test: Binding affinity to HIV-1 HXB2 gp41 N-terminal heptad repeat assessed as thermostability of protein-compound complex at 10 uM after 30 mins by CD spectroscopic analysis; conditions: Human immunodeficiency virus 1
[6] = test system: Human immunodeficiency virus 1; test: Antiviral activity against HIV-1 ZM214M.15 pseudovirus infected in human TZM-bl cells assessed as inhibition of viral entry into cells after 48 hrs by single-cycle infection assay; type: functional, organism-based; conditions: Human immunodeficiency virus 1, ZM214M.15, TZM-bl
[7] = test system: Human immunodeficiency virus 1; test: Antiviral activity against HIV-1 SF162 pseudovirus infected in human TZM-bl cells assessed as inhibition of viral entry into cells after 48 hrs by single-cycle infection assay; type: functional, organism-based; conditions: Human immunodeficiency virus 1, SF162, TZM-bl
[8] = test system: Human immunodeficiency virus 1; test: Antiviral activity against HIV-1 SC42261.8 pseudovirus infected in human TZM-bl cells assessed as inhibition of viral entry into cells after 48 hrs by single-cycle infection assay; type: functional, organism-based; conditions: Human immunodeficiency virus 1, SC42261.8, TZM-bl
[9] = target: Envelope glycoprotein gp160 (Human immunodeficiency virus type 1 group M subtype B (isolate HXB2)(HIV-1), UniProt P04578); test: Binding affinity to HIV-1 HXB2 gp41 N-terminal heptad repeat assessed as inhibition of 6-helix bundle formation after 30 mins by ELISA; parameters: species or system Human immunodeficiency virus 1
[10] = test system: Human immunodeficiency virus 1; test: Antiviral activity against wild type HIV1 NL4-3 infected in human TZM-bl cells assessed as inhibition of viral entry into cells after 48 hrs by single-cycle infection assay; type: functional, organism-based; conditions: Human immunodeficiency virus 1, NL4-3, TZM-bl
[11] = test system: Human immunodeficiency virus 1; test: Antiviral activity against ENF-resistant HIV1 NL4-3 harboring gp41 N-terminal heptad repeat D36G mutant infected in human TZM-bl cells assessed as inhibition of viral entry into cells after 48 hrs by single-cycle infection assay; type: functional, organism-based
[12] = test system: Human immunodeficiency virus 1; test: Antiviral activity against ENF-resistant HIV1 NL4-3 harboring gp41 N-terminal heptad repeat I37T mutant infected in human TZM-bl cells assessed as inhibition of viral entry into cells after 48 hrs by single-cycle infection assay; type: functional, organism-based
[13] = test system: Human immunodeficiency virus 1; test: Antiviral activity against ENF-resistant HIV1 NL4-3 harboring gp41 N-terminal heptad repeat V38A mutant infected in human TZM-bl cells assessed as inhibition of viral entry into cells after 48 hrs by single-cycle infection assay; type: functional, organism-based
[14] = test system: Human immunodeficiency virus 1; test: Antiviral activity against ENF-resistant HIV1 NL4-3 harboring gp41 N-terminal heptad repeat V38M mutant infected in human TZM-bl cells assessed as inhibition of viral entry into cells after 48 hrs by single-cycle infection assay; type: functional, organism-based
[15] = test system: Human immunodeficiency virus 1; test: Antiviral activity against ENF-resistant HIV1 NL4-3 harboring gp41 N-terminal heptad repeat Q40H mutant infected in human TZM-bl cells assessed as inhibition of viral entry into cells after 48 hrs by single-cycle infection assay; type: functional, organism-based
[16] = test system: Human immunodeficiency virus 1; test: Antiviral activity against ENF-resistant HIV1 NL4-3 harboring gp41 N-terminal heptad repeat N43K mutant infected in human TZM-bl cells assessed as inhibition of viral entry into cells after 48 hrs by single-cycle infection assay; type: functional, organism-based
[17] = test system: Human immunodeficiency virus 1; test: Antiviral activity against ENF-resistant HIV1 NL4-3 harboring gp41 N-terminal heptad repeat D36S/V38M double mutant infected in human TZM-bl cells assessed as inhibition of viral entry into cells after 48 hrs by single-cycle infection assay; type: functional, organism-based
[18] = test system: Human immunodeficiency virus 1; test: Antiviral activity against ENF-resistant HIV1 NL4-3 harboring gp41 N-terminal heptad repeat I37T/N43K double mutant infected in human TZM-bl cells assessed as inhibition of viral entry into cells after 48 hrs by single-cycle infection assay; type: functional, organism-based
[19] = test system: Human immunodeficiency virus 1; test: Antiviral activity against ENF-resistant HIV1 NL4-3 harboring gp41 N-terminal heptad repeat V38A/N42T double mutant infected in human TZM-bl cells assessed as inhibition of viral entry into cells after 48 hrs by single-cycle infection assay; type: functional, organism-based
[20] = test system: Human immunodeficiency virus 1; test: Ratio of IC50 for ENF-resistant HIV1 NL4-3 harboring gp41 N-terminal heptad repeat D36G mutant to IC50 for wild type HIV1 NL4-3; type: functional
[21] = test system: Human immunodeficiency virus 1; test: Ratio of IC50 for ENF-resistant HIV1 NL4-3 harboring gp41 N-terminal heptad repeat I37T mutant to IC50 for wild type HIV1 NL4-3; type: functional
[22] = test system: Human immunodeficiency virus 1; test: Ratio of IC50 for ENF-resistant HIV1 NL4-3 harboring gp41 N-terminal heptad repeat V38A mutant to IC50 for wild type HIV1 NL4-3; type: functional
[23] = test system: Human immunodeficiency virus 1; test: Ratio of IC50 for ENF-resistant HIV1 NL4-3 harboring gp41 N-terminal heptad repeat V38M mutant to IC50 for wild type HIV1 NL4-3; type: functional
[24] = test system: Human immunodeficiency virus 1; test: Ratio of IC50 for ENF-resistant HIV1 NL4-3 harboring gp41 N-terminal heptad repeat Q40H mutant to IC50 for wild type HIV1 NL4-3; type: functional
[25] = test system: Human immunodeficiency virus 1; test: Ratio of IC50 for ENF-resistant HIV1 NL4-3 harboring gp41 N-terminal heptad repeat N43K mutant to IC50 for wild type HIV1 NL4-3; type: functional
[26] = test system: Human immunodeficiency virus 1; test: Ratio of IC50 for ENF-resistant HIV1 NL4-3 harboring gp41 N-terminal heptad repeat D36S/V38M double mutant to IC50 for wild type HIV1 NL4-3; type: functional
[27] = test system: Human immunodeficiency virus 1; test: Ratio of IC50 for ENF-resistant HIV1 NL4-3 harboring gp41 N-terminal heptad repeat I37T/N43K double mutant to IC50 for wild type HIV1 NL4-3; type: functional
[28] = test system: Human immunodeficiency virus 1; test: Ratio of IC50 for ENF-resistant HIV1 NL4-3 harboring gp41 N-terminal heptad repeat V38A/N42T double mutant to IC50 for wild type HIV1 NL4-3; type: functional
[29] = target: Envelope glycoprotein gp160 (Human immunodeficiency virus 1) (UniProt Q72502); test: Binding affinity to HIV1 NL4-3 gp41 N-terminal heptad repeat G36D mutant after 30 mins by CD spectroscopic analysis
[30] = target: Envelope glycoprotein gp160 (Human immunodeficiency virus 1) (UniProt Q72502); test: Binding affinity to HIV1 NL4-3 gp41 N-terminal heptad repeat I37T mutant after 30 mins by CD spectroscopic analysis
[31] = test system: Envelope glycoprotein gp160 (Human immunodeficiency virus 1), Q72502 [V38A]; test: Binding affinity to HIV1 NL4-3 gp41 N-terminal heptad repeat V38A mutant after 30 mins by CD spectroscopic analysis
[32] = target: Envelope glycoprotein gp160 (Human immunodeficiency virus 1) (UniProt Q72502); test: Binding affinity to HIV1 NL4-3 gp41 N-terminal heptad repeat Q40H mutant after 30 mins by CD spectroscopic analysis
[33] = target: Envelope glycoprotein gp160 (Human immunodeficiency virus 1) (UniProt Q72502); test: Binding affinity to HIV1 NL4-3 gp41 N-terminal heptad repeat N43K mutant after 30 mins by CD spectroscopic analysis
[34] = target: Envelope glycoprotein gp160 (Human immunodeficiency virus 1) (UniProt Q72502); test: Binding affinity to HIV1 NL4-3 gp41 N-terminal heptad repeat I37T/N43K double mutant after 30 mins by CD spectroscopic analysis
[35] = target: Envelope glycoprotein gp160 (Human immunodeficiency virus 1) (UniProt Q72502); test: Binding affinity to HIV1 NL4-3 gp41 N-terminal heptad repeat V38A/N42T double mutant after 30 mins by CD spectroscopic analysis
[36] = test system: Human immunodeficiency virus 1; test: Antiviral activity against wild type HIV-1; type: functional, organism-based
[37] = test system: Human immunodeficiency virus 1; test: Antiviral activity against HIV-1 pseudovirus harboring Q66R/N126K double mutant; type: functional, organism-based
[38] = test system: Serum; test: Metabolic stability in Sprague-Dawley rat serum at 4 mg/kg, ip measured at 0.5 to 4 hrs post dose; type: ADME, organism-based; conditions: in vivo
[39] = test system: Human immunodeficiency virus 1; test: Ratio of IC50 for wild type HIV1 NL4-3 to IC50 for ENF-resistant HIV1 NL4-3 harboring gp41 N-terminal heptad repeat D36G mutant; type: functional
[40] = test system: Human immunodeficiency virus 1; test: Ratio of IC50 for ENF-resistant HIV1 NL4-3 harboring gp41 N-terminal heptad repeat I37T mutant to IC50 for ENF-resistant HIV1 NL4-3 harboring gp41 N-terminal heptad repeat D36G mutant; type: functional
[41] = test system: Human immunodeficiency virus 1; test: Ratio of IC50 for ENF-resistant HIV1 NL4-3 harboring gp41 N-terminal heptad repeat V38A mutant to IC50 for ENF-resistant HIV1 NL4-3 harboring gp41 N-terminal heptad repeat D36G mutant; type: functional
[42] = test system: Human immunodeficiency virus 1; test: Ratio of IC50 for ENF-resistant HIV1 NL4-3 harboring gp41 N-terminal heptad repeat V38M mutant to IC50 for ENF-resistant HIV1 NL4-3 harboring gp41 N-terminal heptad repeat D36G mutant; type: functional
[43] = test system: Human immunodeficiency virus 1; test: Ratio of IC50 for ENF-resistant HIV1 NL4-3 harboring gp41 N-terminal heptad repeat Q40H mutant to IC50 for ENF-resistant HIV1 NL4-3 harboring gp41 N-terminal heptad repeat D36G mutant; type: functional
[44] = test system: Human immunodeficiency virus 1; test: Ratio of IC50 for ENF-resistant HIV1 NL4-3 harboring gp41 N-terminal heptad repeat N43K mutant to IC50 for ENF-resistant HIV1 NL4-3 harboring gp41 N-terminal heptad repeat D36G mutant; type: functional
[45] = test system: Human immunodeficiency virus 1; test: Ratio of IC50 for ENF-resistant HIV1 NL4-3 harboring gp41 N-terminal heptad repeat D36S/V38M double mutant to IC50 for ENF-resistant HIV1 NL4-3 harboring gp41 N-terminal heptad repeat D36G mutant; type: functional
[46] = test system: Human immunodeficiency virus 1; test: Ratio of IC50 for ENF-resistant HIV1 NL4-3 harboring gp41 N-terminal heptad repeat I37T/N43K double mutant to IC50 for ENF-resistant HIV1 NL4-3 harboring gp41 N-terminal heptad repeat D36G mutant; type: functional
[47] = test system: Human immunodeficiency virus 1; test: Ratio of IC50 for ENF-resistant HIV1 NL4-3 harboring gp41 N-terminal heptad repeat V38A/N42T double mutant to IC50 for ENF-resistant HIV1 NL4-3 harboring gp41 N-terminal heptad repeat D36G mutant; type: functional

Substance	pIC50 [1]	pIC50 [2]	pIC50 [10]	pIC50 [11]	pIC50 [12]	pIC50 [13]	pIC50 [14]	pIC50 [15]	pIC50 [16]	pIC50 [17]	pIC50 [18]	pIC50 [19]	Ratio IC50 [20]	Ratio IC50 [21]	Ratio IC50 [22]	Ratio IC50 [23]	Ratio IC50 [24]	Ratio IC50 [25]	Ratio IC50 [26]	Ratio IC50 [27]	further results
H-TTWEEWDKKIEEYTKKIEELIKKS-OH	7.33	7.58	–	–	–	–	–	–	–	–	–	–	–	–	–	–	–	–	–	–	Tm [3]: 66.3 °C
H-WEAWDRAIAEYAARIEALIRAAQEQQEKNEAALREL-OH	8.97	9.32	8.96	8.72	8.70	8.85	8.77	8.92	8.68	9.00	8.72	9.22	1.7	1.8	1.3	1.6	1.1	1.9	0.9	1.7	Tm [4]: 46.1 °C; Tm [5]: 81.2 °C; pIC50 [6]: 9.14; pIC50 [7]: 8.24; pIC50 [8]: 8.78; pIC50 [9]: 7.11; Ratio IC50 [28]: 0.6; Activity [29]: Active; Activity [30]: Active; Activity [31]: Active; Activity [32]: Active; Activity [33]: Active; Activity [34]: Active; Activity [35]: Active; pIC50 [36]: 8.87; pIC50 [37]: 8.15; Stability [38]: Stable
enfuvirtide	–	–	7.04	8.04	6.21	6.15	6.57	5.84	6.33	6.62	< 5.65	< 5.65	0.1	6.9	7.9	3	16.1	5.2	2.7	>25	Ratio IC50 [28]: >25; Ratio IC50 [39]: 9.9; Ratio IC50 [40]: 68; Ratio IC50 [41]: 77.9; Ratio IC50 [42]: 29.4; Ratio IC50 [43]: 159.8; Ratio IC50 [44]: 51.3; Ratio IC50 [45]: 26.4; Ratio IC50 [46]: 247.3; Ratio IC50 [47]: 247.3
